Key:
[1] = target: T1, Lon-like-Ms (Methanobrevibacter smithii, UniProt A5UP31); assay: fluorogenic peptide cleavage (MNA release); assay type: biochemical; details: 0.3 mM Glt-AAF-MNA, 10 mM MgCl2, pH 8.0, 37 °C; nucleotide required for activity, inhibitory at rising concentration; not a fitted IC50
T1 construct: gene Msm_1754
T1 sequence (A5UP31 1-682): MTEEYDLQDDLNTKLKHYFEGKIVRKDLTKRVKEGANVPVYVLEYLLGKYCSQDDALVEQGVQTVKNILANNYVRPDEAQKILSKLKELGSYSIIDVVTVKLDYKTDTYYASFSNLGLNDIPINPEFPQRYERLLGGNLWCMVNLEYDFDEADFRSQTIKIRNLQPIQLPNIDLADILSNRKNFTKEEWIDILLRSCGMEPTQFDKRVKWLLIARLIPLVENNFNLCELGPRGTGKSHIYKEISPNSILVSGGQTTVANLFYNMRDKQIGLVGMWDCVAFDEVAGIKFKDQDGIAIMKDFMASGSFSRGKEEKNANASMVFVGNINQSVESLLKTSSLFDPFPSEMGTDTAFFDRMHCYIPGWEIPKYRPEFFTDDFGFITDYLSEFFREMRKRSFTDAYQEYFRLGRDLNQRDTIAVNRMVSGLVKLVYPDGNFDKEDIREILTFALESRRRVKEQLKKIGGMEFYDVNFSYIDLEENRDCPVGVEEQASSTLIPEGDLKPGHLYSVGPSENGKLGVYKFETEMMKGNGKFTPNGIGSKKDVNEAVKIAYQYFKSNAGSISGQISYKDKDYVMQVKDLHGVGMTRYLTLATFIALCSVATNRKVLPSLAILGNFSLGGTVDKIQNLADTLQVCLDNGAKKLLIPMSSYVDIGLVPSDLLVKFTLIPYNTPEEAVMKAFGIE
Text: fluorogenic peptide cleavage (MNA release) on Lon-like-Ms | reaching a decrease by half at 1-mM ATP or AMP-PNP

[2] = target: T1, Lon-like-Ms; assay: fluorogenic peptide cleavage (MNA release); assay type: biochemical; details: ADP in place of ATP, with Mg2+; Glt-AAF-MNA, pH 8.0, 37 °C; called inhibitory, partial activity retained

| SMILES | concentration giving decrease by half [1] | fluorogenic peptide cleavage (MNA release) [2] |
| --- | --- | --- |
| Nc1ncnc2c1ncn2[C@@H]1O[C@H](COP(=O)(O)OP(=O)(O)NP(=O)(O)O)[C@@H](O)[C@H]1O [5′-adenylyl imidodiphosphate] | ~ 1 mM |  |
| Nc1ncnc2c1ncn2[C@@H]1O[C@H](COP(=O)(O)OP(=O)(O)O)[C@@H](O)[C@H]1O [ADP] |  | ADP, a potent inhibitor of Lon from E. coli, also inhibited the activity of Lon-like-Ms |
| Nc1ncnc2c1ncn2[C@@H]1O[C@H](COP(=O)(O)OP(=O)(O)OP(=O)(O)O)[C@@H](O)[C@H]1O [ATP] | ~ 1 mM |  |

Source: PMC4864567, “Characterization of the ATP-Dependent Lon-Like Protease in Methanobrevibacter smithii” (Archaea, 2016)
